In US20240270821A1, “GIP/GLP1/GCG TRI-RECEPTOR AGONISTS AND USES THEREOF” (priority 2023, published 2024) one finds EC50 data, which are given here for 17 substances.

pEC50: −log10 of the molar value. Where two headings read alike, the source gives them in different places. Starred links: 1 amine or outer side, 2 acyl side, 3 side chain; linkers in the order of their positions; H or OH if unused. Non-standard residues stand in square brackets, D forms with d. Groups on a side chain read outwards from the residue. *: point of attachment. C18 diacid = O=C(O)CCCCCCCCCCCCCCCCC(=O)*; αMePhe(2-F) = C[C@](N)(Cc1ccccc1F)C(=O)O; γGlu = O=C(O)[C@H](CCC(=O)[*:2])N[*:1]; αMe4Pal = C[C@](N)(Cc1ccncc1)C(=O)O; αMeY = C[C@](N)(Cc1ccc(O)cc1)C(=O)O; 4Pal = N[C@@H](Cc1ccncc1)C(=O)O; αMeL = CC(C)C[C@](C)(N)C(=O)O; αMeS = C[C@](N)(CO)C(=O)O; Orn = NCCC[C@H](N)C(=O)O; AEEA = NCCOCCOCC(=O)O; Aib = CC(C)(N)C(=O)O

Holding throughout (type): cell-based
For experiment [1], the target named is T1, hGLP-1R (Homo sapiens, UniProt P43220). The experiment is described as follows: Functional cAMP activity in the presence of 1% HSA. The conditions noted are these: read-out: cAMP Rel EC50, hGLP-1R.
T1 sequence (P43220 24-463): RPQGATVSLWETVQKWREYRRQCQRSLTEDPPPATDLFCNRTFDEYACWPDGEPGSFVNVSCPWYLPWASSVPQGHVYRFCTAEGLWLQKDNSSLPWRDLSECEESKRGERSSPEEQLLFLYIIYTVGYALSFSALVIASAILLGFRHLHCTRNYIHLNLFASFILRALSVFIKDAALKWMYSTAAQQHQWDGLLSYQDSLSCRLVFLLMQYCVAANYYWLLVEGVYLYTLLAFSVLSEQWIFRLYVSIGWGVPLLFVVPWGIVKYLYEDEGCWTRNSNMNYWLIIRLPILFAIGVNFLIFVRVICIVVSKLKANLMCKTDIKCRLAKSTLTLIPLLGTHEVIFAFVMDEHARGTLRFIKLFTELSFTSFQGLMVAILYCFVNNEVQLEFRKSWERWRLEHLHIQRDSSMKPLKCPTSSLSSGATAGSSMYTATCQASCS
Experiment [2] addresses human GcgR (Homo sapiens, UniProt P47871). The experiment is described as follows: Functional cAMP activity in the presence of 1% HSA. The conditions noted are these: read-out: cAMP Rel EC50, hGcgR.
Experiment [3] has as its target hGcgR (Homo sapiens, UniProt P47871). The experiment is described as follows: Functional cAMP activation in the presence of 0.1% casein (no HSA). The conditions noted are these: read-out: Relative cAMP EC50, hGcgR.
The target in experiment [4] is T2, hGIPR (Homo sapiens, UniProt P48546).
T2 sequence (P48546 22-466): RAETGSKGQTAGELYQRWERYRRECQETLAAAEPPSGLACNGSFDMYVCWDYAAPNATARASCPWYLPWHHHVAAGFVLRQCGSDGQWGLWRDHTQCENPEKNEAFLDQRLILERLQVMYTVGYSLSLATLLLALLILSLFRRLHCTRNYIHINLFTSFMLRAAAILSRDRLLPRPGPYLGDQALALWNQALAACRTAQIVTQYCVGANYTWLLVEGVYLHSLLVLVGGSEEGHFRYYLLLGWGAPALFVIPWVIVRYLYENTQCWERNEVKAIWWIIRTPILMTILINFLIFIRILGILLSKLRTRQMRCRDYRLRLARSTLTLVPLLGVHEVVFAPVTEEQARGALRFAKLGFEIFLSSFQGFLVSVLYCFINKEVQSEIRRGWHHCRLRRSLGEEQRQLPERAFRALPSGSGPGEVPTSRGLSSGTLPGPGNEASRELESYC
The experiment is described as above. The conditions noted are these: read-out: Relative cAMP EC50, hGIPR.

Experiment [5] has as its target T1, hGLP-1R. The description is as above. Conditions: read-out: Relative cAMP EC50, hGLP-1R.
Experiment [6] concerns the target T2, hGIPR. The experiment is described as follows: Functional cAMP activity in the presence of 1% HSA. The conditions noted are these: read-out: cAMP Rel EC50, hGIPR.
The mark [7] stands for this setting: in the presence of 0.1% casein (no HSA), geometric mean.
The mark [8] stands for this setting: 0.1% casein, no HSA, geometric mean.
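Wherever Relative cAMP EC50, hGIPR is given: intracellular cAMP rise after 30 min at 37 °C read by HTRF against a standard curve, scaled between buffer alone (0%) and top control ligand concentration (100%), four-parameter fit.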
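Wherever Relative cAMP EC50, hGLP-1R is given: intracellular cAMP rise after 30 min at 37 °C read by HTRF, normalized between buffer only (0%) and maximal control ligand (100%), four-parameter variable-slope fit.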
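Wherever Relative cAMP EC50, hGcgR is given: intracellular cAMP rise after 30 min at 37 °C, read by HTRF against a cAMP standard curve, scaled from buffer only (0%) to maximal control ligand response (100%).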

Chain of human GcgR (P47871 26-477): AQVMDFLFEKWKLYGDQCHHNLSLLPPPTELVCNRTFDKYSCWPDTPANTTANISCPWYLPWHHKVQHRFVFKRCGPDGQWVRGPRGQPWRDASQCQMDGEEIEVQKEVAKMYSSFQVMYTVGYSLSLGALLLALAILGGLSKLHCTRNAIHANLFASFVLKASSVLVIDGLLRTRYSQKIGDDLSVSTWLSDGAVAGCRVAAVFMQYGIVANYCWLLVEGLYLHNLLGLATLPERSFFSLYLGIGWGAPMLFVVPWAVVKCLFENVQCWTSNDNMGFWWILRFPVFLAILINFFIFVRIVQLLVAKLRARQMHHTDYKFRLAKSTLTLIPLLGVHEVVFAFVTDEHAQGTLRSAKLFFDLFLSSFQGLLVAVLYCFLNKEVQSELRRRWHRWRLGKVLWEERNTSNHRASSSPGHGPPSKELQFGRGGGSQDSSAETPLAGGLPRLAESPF
Chain of hGcgR (P47871 26-477): as above

As a reminder, the pEC50 is the EC50 on a negative log10 scale, so that one unit is a factor of ten. For “H-Y[Aib]QGT[αMePhe(2-F)]TSD[4Pal][αMeS]I[αMeL]LD[Orn]K([AEEA-γGlu-C18 diacid])AQ[αMe4Pal]EFI[dE][αMeY]LIEGGPPS[Aib][Orn]PPP[Orn]GS-NH2 [Example 1189]”, the pEC50 in experiment [1] was 7.34; in experiment [2], 6.61; in experiment [3] (setting [7]), 8.80; in experiment [4] (setting [7]) it was 11.22; in experiment [5] (setting [7]), 9.53; in experiment [6] it was 9.23.

Consider “H-Y[Aib]QGT[αMePhe(2-F)]TSD[4Pal][αMeS]I[αMeL]LD[Orn]K([AEEA-γGlu-C18 diacid])AQ[αMe4Pal]EFI[dE][αMeY]LIEGGPSSGAPPPEGE-NH2 [Example 1148]”, for which the pEC50 in experiment [1] was 7.35; in experiment [2], 6.76; in experiment [3] (setting [7]), 8.80; in experiment [4] (setting [7]), 11.10; in experiment [5] (setting [7]) it was 9.52; in experiment [6] it was 9.06.

Regarding “H-Y[Aib]QGT[αMePhe(2-F)]TSD[4Pal][αMeS]I[αMeL]LD[Orn]K([AEEA-γGlu-C18 diacid])AQ[αMe4Pal]EFI[dE][αMeY]LIEGGPSSGAPPPEGGGE-NH2 [Example 759]”, the pEC50 in experiment [1] was 7.46; in experiment [2] it was 6.65; in experiment [3], 8.89; in experiment [4], 11.17; in experiment [5], 9.58; in experiment [6], 8.98.

Consider “H-Y[Aib]QGT[αMePhe(2-F)]TSD[4Pal][αMeS]I[αMeL]LD[Orn]K([AEEA-γGlu-C18 diacid])AQ[αMe4Pal]EFI[dE][αMeY]LIEGGPSSGAPPPEGGGEE-NH2 [Example 1216]”, for which the pEC50 in experiment [1] was 7.17; in experiment [2] it was 6.65; in experiment [3] (setting [8]), 8.74; in experiment [4] (setting [8]), 11.04; in experiment [5] (setting [8]), 9.19; in experiment [6] it was 9.04.

With “H-Y[Aib]QGT[αMePhe(2-F)]TSD[4Pal][αMeS]I[αMeL]LD[Orn]K([AEEA-γGlu-C18 diacid])AQ[αMe4Pal]EFI[dE][αMeY]LIEGGPSSGAPPPEGGGEEE-NH2 [Example 1217]”, the pEC50 in experiment [1] is 7.20; in experiment [2] it was 6.60; in experiment [3] (setting [8]) it was 8.70; in experiment [4] (setting [8]) it was 11.00; in experiment [5] (setting [8]), 9.12; in experiment [6], 8.97.

Regarding “H-Y[Aib]QGT[αMePhe(2-F)]TSD[4Pal][αMeS]I[αMeL]LD[Orn]K([AEEA-γGlu-C18 diacid])AQ[αMe4Pal]EFI[dE][αMeY]LIEGGPSSGAPPPGGE-NH2 [Example 1144]”, the pEC50 in experiment [1] was 7.44; in experiment [2], 6.71; in experiment [3] (setting [7]), 8.88; in experiment [4] (setting [7]) it was 11.19; in experiment [5] (setting [7]), 9.55; in experiment [6], 9.14.

“H-Y[Aib]QGT[αMePhe(2-F)]TSD[4Pal][αMeS]I[αMeL]LD[Orn]K([AEEA-γGlu-C18 diacid])AQ[αMe4Pal]EFI[dE][αMeY]LIEGGPSSGAPPPSGE-NH2 [Example 1140]”: the pEC50 in experiment [1] was 7.41; in experiment [2] it was 6.64; in experiment [3] (setting [7]), 8.81; in experiment [4] (setting [7]), 11.09; in experiment [5] (setting [7]) it was 9.49; in experiment [6] it was 9.06.

As for “H-Y[Aib]QGT[αMePhe(2-F)]TSD[4Pal][αMeS]I[αMeL]LD[Orn]K([AEEA-γGlu-C18 diacid])AQ[αMe4Pal]EFI[dE][αMeY]LIEGGPSSGAPPPSGGGEE-NH2 [Example 1214]”, the pEC50 is 7.30 in experiment [1]; 6.68 in experiment [2]; 8.73 in experiment [3] (setting [8]); 11.07 in experiment [4] (setting [8]); 9.26 in experiment [5] (setting [8]); 9.11 in experiment [6].

In the case of “H-Y[Aib]QGT[αMePhe(2-F)]TSD[4Pal][αMeS]I[αMeL]LD[Orn]K([AEEA-γGlu-C18 diacid])AQ[αMe4Pal]EFI[dE][αMeY]LIEGGPSSGAPPPSGGGEEE-NH2 [Example 1215]”, the pEC50 is 7.23 in experiment [1]; 6.57 in experiment [2]; 8.68 in experiment [3] (setting [8]); 10.97 in experiment [4] (setting [8]); 9.18 in experiment [5] (setting [8]); 9.03 in experiment [6].

For the substance “H-Y[Aib]QGT[αMePhe(2-F)]TSD[4Pal][αMeS]I[αMeL]LD[Orn]K([AEEA-γGlu-C18 diacid])AQ[αMe4Pal]EFI[dE][αMeY]LIEGGPSSGAPPPSGSEE-NH2 [Example 713]”, the pEC50 was 7.42 in experiment [1]; 6.74 in experiment [2]; 8.77 in experiment [3]; 11.03 in experiment [4]; 9.48 in experiment [5]; 9.06 in experiment [6].

“H-Y[Aib]QGT[αMePhe(2-F)]TSD[4Pal][αMeS]I[αMeL]LD[Orn]K([AEEA-γGlu-C18 diacid])AQ[αMe4Pal]EFI[dE][αMeY]LIEGGPSSGAPPPTGE-NH2 [Example 1142]”: the negative logarithm of the EC50 (pEC50) was 7.42 in experiment [1]; 6.69 in experiment [2]; 8.87 in experiment [3] (setting [7]); 11.15 in experiment [4] (setting [7]); 9.48 in experiment [5] (setting [7]); 9.13 in experiment [6].

“H-Y[Aib]QGT[αMePhe(2-F)]TSD[4Pal][αMeS]I[αMeL]LD[Orn]K([AEEA-γGlu-C18 diacid])AQ[αMe4Pal]EFI[dE][αMeY]LIEGGPSSGEPPPEGE-NH2 [Example 1149]”: the negative logarithm of the EC50 (pEC50) is 7.28 in experiment [1]; 6.74 in experiment [2]; 8.86 in experiment [3] (setting [7]); 11.09 in experiment [4] (setting [7]); 9.45 in experiment [5] (setting [7]); 9.02 in experiment [6].

Turning to “H-Y[Aib]QGT[αMePhe(2-F)]TSD[4Pal][αMeS]I[αMeL]LD[Orn]K([AEEA-γGlu-C18 diacid])AQ[αMe4Pal]EFI[dE][αMeY]LIEGGPSSGEPPPEGGGE-NH2 [Example 760]”, the pEC50 is 7.36 in experiment [1]; 6.62 in experiment [2]; 8.80 in experiment [3]; 11.14 in experiment [4]; 9.40 in experiment [5]; 8.89 in experiment [6].

“H-Y[Aib]QGT[αMePhe(2-F)]TSD[4Pal][αMeS]I[αMeL]LD[Orn]K([AEEA-γGlu-C18 diacid])AQ[αMe4Pal]EFI[dE][αMeY]LIEGGPSSGEPPPGGE-NH2 [Example 1145]”: the pEC50 is 7.41 in experiment [1]; 6.83 in experiment [2]; 8.97 in experiment [3] (setting [7]); 11.16 in experiment [4] (setting [7]); 9.50 in experiment [5] (setting [7]); 9.07 in experiment [6].

As for “H-Y[Aib]QGT[αMePhe(2-F)]TSD[4Pal][αMeS]I[αMeL]LD[Orn]K([AEEA-γGlu-C18 diacid])AQ[αMe4Pal]EFI[dE][αMeY]LIEGGPSSGEPPPTGE-NH2 [Example 1143]”, the pEC50 in experiment [1] was 7.30; in experiment [2], 6.74; in experiment [3] (setting [7]), 8.85; in experiment [4] (setting [7]), 11.06; in experiment [5] (setting [7]), 9.42; in experiment [6], 9.12.

For “H-Y[Aib]QGT[αMePhe(2-F)]TSD[4Pal][αMeS]I[αMeL]LD[Orn]K([AEEA-γGlu-C18 diacid])AQ[αMe4Pal]EFI[dE][αMeY]LVEGGPSSGAPPPEGE-NH2 [Example 1158]”, the pEC50 is 7.33 in experiment [1]; 6.52 in experiment [2]; 8.66 in experiment [3] (setting [7]); 10.90 in experiment [4] (setting [7]); 9.38 in experiment [5] (setting [7]); 8.85 in experiment [6].

“H-Y[Aib]QGT[αMePhe(2-F)]TSD[4Pal][αMeS]I[αMeL]LD[Orn]K([AEEA-γGlu-C18 diacid])AQ[αMe4Pal]EFI[dE][αMeY]LVEGGPSSGAPPPESE-NH2 [Example 1156]”: the pEC50 is 7.33 in experiment [1]; 6.47 in experiment [2]; 8.53 in experiment [3] (setting [7]); 10.90 in experiment [4] (setting [7]); 9.35 in experiment [5] (setting [7]); 8.88 in experiment [6].
